According to the NIST ThermoML archive (doi:10.1021/je900756g):

Settings: Liquid; for mass density: Bellows volumetry; for vapor or sublimation pressure: Closed cell (Static) method

F/C=C/C(F)(F)F [trans-1,3,3,3-tetrafluoropropene]
mass density [kg/m3]
Settings	310 K	320 K	330 K	340 K	350 K	360 K	370 K
2000 kPa	1130.2	1093.3	1054.2	1008.1	953.6	–	–
3000 kPa	1136.3	1100.9	1063.6	1021	972.3	910.5	821.5
4000 kPa	1142.1	1108	1072.2	1032.2	987.6	934.2	867.6
5000 kPa	1147.7	1114.7	1080	1042.4	1000.5	952.9	896.7

Settings	vapor or sublimation pressure [kPa]
310 K	703
320 K	920
330 K	1183
340 K	1500
350 K	1876
360 K	2320
370 K	2841
380 K	3458
